Test results: patent US20260224524A1, “A PHARMACEUTICAL COMPOSITION TARGETING MUTANT P53 AND HER2” (DR DOZO LABORATORIES, priority 2023, published 2026)

System: Human Lung Cancer Cell Line A-549
Assay: Growth inhibition (% control growth, LC50, TGI, GI50) A-549
Assay type: cell-based
Conditions: Homo sapiens, A549, read-out: LC50, A-549; Molar drug concentrations calculated from graph
Description: The therapeutic effect of SA1 (peak 5) and SA2 (peak 4) is evaluated against human lung cancer cell line A-549 by calculating the percentage growth inhibition, drug concentration of test compound needed to inhibit cell growth by 50% (GI50) values.
The therapeutic effect of SACC is evaluated against human lung cancer cell line A-549 by calculating the percentage growth inhibition, drug concentration of test compound needed to inhibit cell growth by 50% (GI50) values.

SMILES: COc1cccc2c1C(=O)c1c(O)c3c(c(O)c1C2=O)C[C@@](O)(C(=O)CO)C[C@@H]3O[C@H]1C[C@H](N)[C@H](O)[C@H](C)O1 [ADR, Adriamycin]
- LC50: 143 µM
